The numbers were not newly measured in patent publication US6387950B2, “Treatment of tumors with RARα selective retinoid compounds in combination with other anti-tumor agents” (Allergan Sales, Inc., priority 2000, dated 2002), which cites them from elsewhere.

The subject of one data set is carcinoma cell lines. To be noted: in some of the cell lines; Fanjul et al. 1996; cited from earlier work.
The next data set addresses T1, RARγ receptors (Homo sapiens, UniProt P13631).
T1 sequence (P13631 1-454): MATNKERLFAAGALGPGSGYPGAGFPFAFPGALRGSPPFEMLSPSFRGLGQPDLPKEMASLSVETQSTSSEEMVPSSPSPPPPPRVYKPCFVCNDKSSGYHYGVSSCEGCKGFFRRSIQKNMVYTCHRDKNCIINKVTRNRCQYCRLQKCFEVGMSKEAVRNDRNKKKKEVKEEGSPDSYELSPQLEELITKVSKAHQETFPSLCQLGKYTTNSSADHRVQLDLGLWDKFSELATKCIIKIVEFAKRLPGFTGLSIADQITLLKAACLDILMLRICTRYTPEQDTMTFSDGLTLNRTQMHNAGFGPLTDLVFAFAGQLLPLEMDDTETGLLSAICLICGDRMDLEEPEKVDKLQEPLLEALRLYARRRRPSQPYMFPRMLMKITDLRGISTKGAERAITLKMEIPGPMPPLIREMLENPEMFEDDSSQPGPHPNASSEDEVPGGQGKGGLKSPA
To be noted: Fanjul et al. 1996; cited from earlier work.

Data set [1] concerns MCF-7 human breast cancer lines. To be noted: Toma et al. 1997; cited from earlier work.
In data set [2] the test system is MCF-7 human carcinoma cell lines. To be noted: Kurbacher et al. 1996; cited from earlier work.
Data set [3] deals with MDA-MB 231 human carcinoma cell lines. To be noted: Kurbacher et al. 1996; cited from earlier work.

Take `COC(=O)c1ccc(/C(C)=C/c2ccc3c(c2)C(C)(C)CCC3(C)C)cc1` [SRI 11220]: the “anti-proliferative activity in combination with interferon” value in the data set on carcinoma cell lines was “synergistic”. On RARγ receptors, the receptor activity entry is on record as “RARγ agonist”.
For `CC1=C(/C=C/C(C)=C/C=C/C(C)=C/C(=O)O)C(C)(C)CCC1` [all trans retinoic acid], in data set [1], the “effect in combination with tamoxifen (TAM)” value is given as “synergistic effect” and the “effect in combination with α interferon (α IFN)” value is listed as “synergistic effects”.
On to `O=C1O[C@H]([C@@H](O)CO)C(O)=C1O` [vitamin C], for which the “action with certain chemotherapeutic anti-tumor agents” value in data set [2] and in data set [3] was “synergistic action” in each case.
